We go through 45 substances from patent US11840686B2, “Modulation of prekallikrein (PKK) expression” (Ionis Pharmaceuticals, Inc., priority 2013, dated 2023).

The data set has as its system human PKK mRNA. Put plainly: Antisense inhibition of human PKK mRNA in HepaRG cells, 3,000 nM (Example 1). Type of data set: cell-based. The conditions noted are these: relative to untreated control cells. The essentials:
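Values give percent PKK mRNA reduction relative to untreated controls, normalised to RIBOGREEN total RNA. mRNA was quantified by real-time PCR (RTS3454) about 24 h after electroporation. Each 20-mer MOE gapmer was delivered at 3,000 nM into 20,000 HepaRG cells per well.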

Setting [1] is: Table 4, HepaRG cells, electroporation with 3,000 nM antisense oligonucleotide, approx. 24 hours, PKK mRNA by RT-PCR (RTS3454).
Setting [2] is: Table 3, HepaRG cells, electroporation with 3,000 nM antisense oligonucleotide, approx. 24 hours, PKK mRNA by RT-PCR (RTS3454).
The mark [3] stands for this setting: Table 2, PKK mRNA, HepaRG cells, 3,000 nM, electroporation, ~24 h.
Where [4] appears, read: Table 1, PKK mRNA, HepaRG cells, 3,000 nM, electroporation, ~24 h.

Strand notation (5' to 3'): a small letter for the sugar, then the base; units joined by * are phosphorothioate-linked, units joined directly phosphodiester-linked; [ ] holds rarer units or linkages, { } end groups; capitals alone tell only the bases. e = 2'-O-(2-methoxyethyl) (MOE); [5mC] = 5-methylcytosine; d = 2'-deoxy (DNA)

For orientation: % inhibition means the share of the control response that was lost under treatment. Turning to “531166 (antisense eA*eG*eA*e[5mC]*eA*dG*dT*dA*dA*dA*d[5mC]*dA*dA*dA*dA*eT*e[5mC]*eA*eG*eG) [compound 531166]”, the “% inhibition” value under setting [1] is recorded as 12%.

For the substance “531144 (antisense eT*eG*eA*eA*eG*dA*dT*dT*d[5mC]*dT*dA*dT*dT*dT*dA*eA*e[5mC]*eA*eA*eA) [compound 531144]”, the “% inhibition” value under setting [2] came to 0%. As for “531168 (antisense eA*e[5mC]*e[5mC]*e[5mC]*e[5mC]*dA*dA*d[5mC]*dA*dG*dA*d[5mC]*dA*dG*d[5mC]*e[5mC]*e[5mC]*eA*e[5mC]*e[5mC]) [compound 531168]”, under setting [1], the “% inhibition” value was found to be 55%.

Turning to “531131 (antisense eT*eA*eG*eA*eA*dA*dG*dA*dG*dT*dA*dA*dG*d[5mC]*d[5mC]*eT*eT*e[5mC]*eA*e[5mC]) [compound 531131]”, the “% inhibition” value under setting [2] turned out to be 0%.

Regarding “531153 (antisense e[5mC]*eT*eA*eG*eA*dA*dG*d[5mC]*dA*dA*dT*dA*dT*dT*dT*eA*eA*eA*eG*e[5mC]) [compound 531153]”, the “% inhibition” value under setting [2] came out at 0%. With “531036 (antisense eG*eT*eG*eT*e[5mC]*dA*d[5mC]*d[5mC]*dT*dT*dT*dG*dG*dA*dA*eG*eG*eT*eA*eG) [compound 531036]”, the “% inhibition” value under setting [3] came to 71%. Take “531146 (antisense e[5mC]*e[5mC]*eA*eG*eT*dG*dT*dA*dA*dT*dT*d[5mC]*dA*dA*dA*eG*eG*eA*eG*e[5mC]) [compound 531146]”: under setting [2], the “% inhibition” value came out at 40%.

Turning to “531139 (antisense eT*e[5mC]*eA*e[5mC]*eT*dA*dA*dA*dA*d[5mC]*dA*dA*dA*dA*dA*eT*eA*e[5mC]*eT*eT) [compound 531139]”, under setting [2], the “% inhibition” value turned out to be 0%.

On to “531098 (eT*eT*eA*eT*eT*dA*dG*dT*d[5mC]*dA*dA*dA*dT*d[5mC]*dA*e[5mC]*e[5mC]*e[5mC]*eA*eA; antisense) [compound 531098]”, for which, under setting [2], the “% inhibition” value stood at 19%. Take “531119 (antisense eT*eA*eA*eA*e[5mC]*dT*d[5mC]*dT*dT*dA*d[5mC]*dA*dT*dT*dT*eA*eT*eA*eG*eA) [compound 531119]”: under setting [2], the “% inhibition” value worked out at 0%. For “530932 (antisense eT*eG*eT*e[5mC]*eA*d[5mC]*dT*dT*dA*dA*dA*dA*dA*dT*dG*eA*eA*e[5mC]*eG*eG) [compound 530932]”, under setting [4], the “% inhibition” value stood at 52%. Take “531085 (eA*eG*eG*e[5mC]*eA*d[5mC]*dA*dG*dA*dG*d[5mC]*d[5mC]*dA*dG*d[5mC]*eA*e[5mC]*e[5mC]*e[5mC]*eA; antisense) [compound 531085]”: the “% inhibition” value under setting [2] is reported as 9%.

“530989 (eT*e[5mC]*eT*e[5mC]*e[5mC]*dT*d[5mC]*d[5mC]*dA*dA*dA*dG*dT*d[5mC]*dA*eA*e[5mC]*eT*e[5mC]*e[5mC]; antisense) [compound 530989]”: the “% inhibition” value under setting [4] stood at 28%. For “531164 (antisense eT*eT*eA*eA*eA*dT*dA*dT*dA*dA*dA*dG*dA*dG*dA*eT*e[5mC]*e[5mC]*eT*e[5mC]) [compound 531164]”, under setting [1], the “% inhibition” value was determined as 38%. In the case of “531118 (antisense eG*e[5mC]*e[5mC]*eT*eA*dA*dA*dT*dG*dT*dA*dA*dG*dA*dG*e[5mC]*eT*eA*eA*eA) [compound 531118]”, the “% inhibition” value under setting [2] was determined as 26%. “531079 (eT*e[5mC]*e[5mC]*eT*e[5mC]*dA*dG*d[5mC]*dA*dG*d[5mC]*dT*d[5mC]*dT*dG*eA*eG*eT*eG*e[5mC]; antisense) [compound 531079]”: the “% inhibition” value under setting [3] stood at 58%. Turning to “531197 (eT*eA*e[5mC]*e[5mC]*eT*dT*dT*dT*d[5mC]*dT*d[5mC]*d[5mC]*dA*dT*dG*eT*e[5mC]*eA*eT*eT; antisense) [compound 531197]”, the “% inhibition” value under setting [1] is 42%. “530943 (antisense eA*eT*e[5mC]*e[5mC]*eA*d[5mC]*dA*dG*dG*dA*dA*dA*d[5mC]*dT*dG*eT*eA*eG*e[5mC]*eA) [compound 530943]”: the “% inhibition” value under setting [4] came out at 56%. Consider “531112 (antisense eA*eT*eG*eT*eA*dT*dG*dA*dT*dT*d[5mC]*dT*dA*dA*dG*eA*eA*e[5mC]*eT*eT) [compound 531112]”, for which the “% inhibition” value under setting [2] is 14%.

As to “530991 (eA*eT*eT*e[5mC]*eA*dA*dT*dT*d[5mC]*dT*dT*d[5mC]*dT*d[5mC]*d[5mC]*eT*e[5mC]*e[5mC]*eA*eA; antisense) [compound 530991]”, the “% inhibition” value under setting [4] was 43%. With “531088 (eG*eG*eT*eT*eT*dT*dG*dT*dT*dT*dG*dT*dA*dA*dA*eA*eT*eT*eA*eG; antisense) [compound 531088]”, the “% inhibition” value under setting [2] is given as 27%. “531218 (eG*eA*eT*eA*eA*dT*dT*d[5mC]*dT*dT*dT*dT*d[5mC]*dA*d[5mC]*eA*eG*eA*e[5mC]*eA; antisense) [compound 531218]”: the “% inhibition” value under setting [1] worked out at 72%. On the same count and under the same terms, the result for “531200 (e[5mC]*eA*eA*eA*eA*dT*d[5mC]*dA*d[5mC]*dA*dA*dG*dT*dT*d[5mC]*eT*eA*eG*eA*eT; antisense) [compound 531200]” reads 51%. Take “530960 (antisense eA*eT*eT*e[5mC]*eT*dT*d[5mC]*dA*dA*d[5mC]*dA*d[5mC]*dT*dG*d[5mC]*eT*eA*eA*e[5mC]*e[5mC]) [compound 530960]”: the “% inhibition” value under setting [4] amounted to 58%.

As for “531025 (eT*e[5mC]*eT*e[5mC]*eT*dT*dT*dT*dA*dT*dT*dT*dG*dT*dG*eA*eG*eA*eA*eA; antisense) [compound 531025]”, the “% inhibition” value under setting [3] turned out to be 34%.

In the case of “531191 (eA*eA*eG*eT*eG*dT*dA*dT*dT*dG*d[5mC]*d[5mC]*dT*dA*dG*eA*eT*eT*eT*e[5mC]; antisense) [compound 531191]”, the “% inhibition” value under setting [1] is given as 37%. As to “531176 (antisense eT*eT*eA*eT*eG*dA*dA*dA*d[5mC]*d[5mC]*dT*d[5mC]*dT*dT*dG*eA*eT*eT*eT*eG) [compound 531176]”, the “% inhibition” value under setting [1] is 0%. The same measure, in the same setting: the value for “531178 (antisense eA*e[5mC]*e[5mC]*eA*e[5mC]*dA*dG*dG*dA*dA*dA*d[5mC]*dT*dG*dT*eA*eG*e[5mC]*eA*eA) [compound 531178]” was 72%. “530944 (antisense e[5mC]*eA*eG*eA*e[5mC]*dA*dT*d[5mC]*d[5mC]*dA*d[5mC]*dA*dG*dG*dA*eA*eA*e[5mC]*eT*eG) [compound 530944]”: the “% inhibition” value under setting [4] amounted to 0%.

Regarding “531175 (antisense eT*eA*e[5mC]*eT*e[5mC]*dA*dG*dG*dA*dA*dA*dT*dT*dA*dG*eA*eA*eT*eA*eT) [compound 531175]”, the “% inhibition” value under setting [1] is on record as 25%.

For the substance “530942 (antisense e[5mC]*eA*eG*eG*eA*dA*dA*d[5mC]*dT*dG*dT*dA*dG*d[5mC]*dA*eA*eA*e[5mC]*eA*eA) [compound 530942]”, the “% inhibition” value under setting [4] is 22%.

For the substance “531154 (antisense eA*eT*eG*eA*eA*dG*dT*dA*dA*dG*dA*dT*dG*d[5mC]*dT*eT*eA*eA*eA*eA) [compound 531154]”, the “% inhibition” value under setting [2] is reported as 16%.

Take “531224 (eA*eA*eG*eA*eG*dA*dA*dT*dG*d[5mC]*dT*d[5mC]*dA*dG*dA*eA*eA*eT*eG*eG; antisense) [compound 531224]”: the “% inhibition” value under setting [1] is listed as 25%. As for “531104 (eA*e[5mC]*eT*eT*eG*dA*d[5mC]*d[5mC]*dT*dT*dA*d[5mC]*dT*dG*dT*eT*eT*eT*eA*eG; antisense) [compound 531104]”, the “% inhibition” value under setting [2] was 20%.

As to “531040 (antisense eT*e[5mC]*e[5mC]*eT*eT*d[5mC]*dG*dA*dG*dA*dA*dG*d[5mC]*d[5mC]*d[5mC]*e[5mC]*eA*eT*e[5mC]*e[5mC]) [compound 531040]”, the “% inhibition” value under setting [3] turned out to be 27%.

Take “531181 (antisense eG*eG*eT*eT*eG*dA*dG*dG*dG*dA*d[5mC]*dA*dG*dA*d[5mC]*eA*e[5mC]*eA*eG*eG) [compound 531181]”: the “% inhibition” value under setting [1] was 36%. As for “531014 (eA*eG*e[5mC]*eT*eT*d[5mC]*dA*d[5mC]*d[5mC]*dT*dG*d[5mC]*dA*dG*dG*e[5mC]*eT*e[5mC]*eA*e[5mC]; antisense) [compound 531014]”, the “% inhibition” value under setting [3] is 0%.

In the case of “531045 (antisense eT*eT*eT*e[5mC]*eT*dG*dG*d[5mC]*dA*dT*dT*d[5mC]*dT*dT*d[5mC]*eA*eT*eT*eT*eG) [compound 531045]”, the “% inhibition” value under setting [3] amounted to 37%.

As for “531145 (antisense eG*e[5mC]*e[5mC]*eT*eA*dG*dG*dA*dG*dA*dG*dA*dA*dA*dA*eA*eT*eA*eA*eA) [compound 531145]”, the “% inhibition” value under setting [2] worked out at 0%.

Turning to “531059 (antisense eA*e[5mC]*eA*eT*eT*d[5mC]*d[5mC]*dA*dT*dT*dG*dT*dG*dT*dT*eT*eG*e[5mC]*eA*eA) [compound 531059]”, the “% inhibition” value under setting [3] came out at 55%. For the substance “531142 (antisense eT*eG*eT*eT*eT*dA*dA*dA*dA*dT*dA*dT*d[5mC]*dT*d[5mC]*eT*eA*eT*eA*e[5mC]) [compound 531142]”, under setting [2], the “% inhibition” value was determined as 8%. As for “531203 (eT*eG*eA*e[5mC]*eT*dA*dT*d[5mC]*d[5mC]*dA*dA*dT*dT*dT*d[5mC]*eT*eA*eG*eT*eT; antisense) [compound 531203]”, the “% inhibition” value under setting [1] turned out to be 67%. Consider “531193 (eT*eT*eA*eT*eT*d[5mC]*d[5mC]*d[5mC]*dA*dG*d[5mC]*dT*d[5mC]*dT*dA*eA*eA*eA*eT*eA; antisense) [compound 531193]”, for which the “% inhibition” value under setting [1] amounted to 23%. Take “531048 (antisense eT*eT*eA*eT*eA*dA*dT*d[5mC]*dT*dT*dG*dA*dT*dA*dT*e[5mC]*eT*eT*eT*eT) [compound 531048]”: the “% inhibition” value under setting [3] came out at 42%. On the same count and under the same terms, the value for “531008 (eT*eG*e[5mC]*eT*eG*dG*dA*dA*dG*dA*dT*dG*dT*dT*d[5mC]*eA*eT*eG*eT*eG; antisense) [compound 531008]” was 51%.
